Source: patent publication US20260125382A1, “COMPOUNDS FOR INHIBITING OR DEGRADING CDK2 AND/OR CDK9 AND MEDICINAL USE THEREOF” (KOREA RESEARCH INSTITUTE OF CHEMICAL TECHNOLOGY, priority 2022, published 2026)

Legend:
CDK2 = molecular target: T1, CDK2 (Homo sapiens, UniProt P24941); experiment: CDK protein degradation activity (Western blotting), CDK2; format: cell-based; settings: MDA-MB-231 cells, 16 hours, Western blot
T1 construct: endogenous in cells; host or cells: MDA-MB-231
Outline: (§1)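 Breast cancer line MDA-MB-231, 16 h compound treatment (100 nM–10 μM final, three doses). Immunoblot quantification of CDK2/CDK9 versus tubulin, normalized to DMSO control.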

CDK9 = molecular target: T2, CDK9 (Homo sapiens, UniProt P50750); experiment: CDK protein degradation activity (Western blotting), CDK9; format: cell-based; settings: MDA-MB-231 cells, 16 hours, Western blot
T2 construct: endogenous in cells; host or cells: MDA-MB-231
Outline: as §1

T2 sequence (P50750 whole entry): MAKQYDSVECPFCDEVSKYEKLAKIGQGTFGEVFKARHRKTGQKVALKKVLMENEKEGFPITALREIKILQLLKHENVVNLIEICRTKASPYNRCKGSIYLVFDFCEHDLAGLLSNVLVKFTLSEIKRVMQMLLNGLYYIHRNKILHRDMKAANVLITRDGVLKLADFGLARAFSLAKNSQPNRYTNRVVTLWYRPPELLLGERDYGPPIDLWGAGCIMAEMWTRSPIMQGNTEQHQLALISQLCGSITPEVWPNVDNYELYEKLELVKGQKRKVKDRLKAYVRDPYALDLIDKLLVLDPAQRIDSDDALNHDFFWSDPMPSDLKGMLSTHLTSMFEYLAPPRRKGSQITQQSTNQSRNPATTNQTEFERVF

SMILES	Enzyme degradation CDK2 (% remaining) @ 0.1 μM (CDK2)	Enzyme degradation CDK2 (% remaining) @ 1 μM (CDK2)	Enzyme degradation CDK2 (% remaining) @ 10 μM (CDK2)	Enzyme degradation CDK9 (% remaining) @ 0.1 μM (CDK9)	Enzyme degradation CDK9 (% remaining) @ 1 μM (CDK9)	Enzyme degradation CDK9 (% remaining) @ 10 μM (CDK9)
O=C1CC[C@H](N2C(=O)c3ccc(N4CCC(C(=O)N5CCC(CN6CCN(c7ccc(Nc8ncnc9c8ncn9C8CC(NC(=O)c9c(Cl)cccc9Cl)C8)cc7)CC6)CC5)CC4)cc3C2=O)C(=O)N1 (stereo partly drawn) [Compound 395, 2,6-dichloro-N-((1s,3s)-3-(6-((4-(4-((1-(1-(2-(2,6-dioxopiperidin-3-yl)-1,3-dioxoisoindolin-5-yl)piperidin-4-carbonyl)piperidin-4-yl)methyl)piperazin-1-yl)phenyl)amino)-9H-purin-9-yl)cyclobutyl)benzamide]	20/20/20%	20/20/20%	20/20/20%	0/0/0%	0/0/0%	0/0/0%
O=C1CC[C@@H](c2ccc(OCC(=O)N3CC(N4CCC5(CC4)CC(N4CCN(c6ccc(Nc7ncnc8c7ncn8[C@H]7C[C@@H](NC(=O)Cc8ccccc8)C7)cc6)CC4)C5)C3)cc2)C(=O)N1 [Compound 273, N-((1s,3s)-3-(6-((4-(4-(7-(1-(2-(4-(2,6-dioxopiperidin-3-yl)phenoxy)acetyl)azetidin-3-yl)-7-azaspiro[3.5]nonan-2-yl)piperazin-1-yl)phenyl)amino)-9H-purin-9-yl)cyclobutyl)-2-phenylacetamide]	100%	70%	50%	20%	10%	10%
Cc1cccc(C(=O)NC2CC(n3cnc4c(NCCCN5CCN(CC6CCN(C(=O)COc7cccc8c7C(=O)N([C@@H]7CCC(=O)NC7=O)C8=O)CC6)CC5)ncnc43)C2)n1 (stereo partly drawn) [Compound 142, N-((1r,3r)-3-(6-((3-(4-((1-(2-((2-(2,6-dioxopiperidin-3-yl)-1,3-dioxoisoindolin-4-yl)oxy)acetyl)piperidin-4-yl)methyl)piperazin-1-yl)propyl)amino)-9H-purin-9-yl)cyclobutyl)-6-methylpicolinamide]	80%	70%	50%	70%	0%	0%
O=C1CC[C@H](N2C(=O)c3cccc(OCC(=O)N4CCC(CC(=O)N5CCN(c6ccc(Nc7ncnc8c7ncn8C7CC(NC(=O)Cc8ccccc8)C7)cc6)CC5)CC4)c3C2=O)C(=O)N1 (stereo partly drawn) [Compound 212, N-((1s,3s)-3-(6-((4-(4-(2-(1-(2-((2-(2,6-dioxopiperidin-3-yl)-1,3-dioxoisoindolin-4-yl)oxy)acetyl)piperidin-4-yl)acetyl)piperazin-1-yl)phenyl)amino)-9H-purin-9-yl)cyclobutyl)-2-phenylacetamide]	30%	20%	10%	70%	30%	20%
O=C1CCC(N2C(=O)c3cccc(OCC(=O)N4CCC5(CC4)CC(N4CCN(c6ccc(Nc7ncnc8c7ncn8[C@H]7C[C@@H](NC(=O)Cc8ccccc8)C7)cc6)CC4)C5)c3C2=O)C(=O)N1 (stereo partly drawn) [Compound 206, N-((1s,3s)-3-(6-((4-(4-(7-(2-((2-(2,6-dioxopiperidin-3-yl)-1,3-dioxoisoindolin-4-yl)oxy)acetyl)-7-azaspiro[3.5]nonan-2-yl)piperazin-1-yl)phenyl)amino)-9H-purin-9-yl)cyclobutyl)-2-phenylacetamide]	20%	20%	10%	0/0/0%	0/0/0%	0/0/0%
O=C1CC[C@H](N2C(=O)c3cc(F)c(N4CCC(C(=O)N5CCC(CN6CCN(c7ccc(Nc8ncnc9c8ncn9C8CC(NC(=O)c9cccc(F)n9)C8)cc7)CC6)CC5)CC4)cc3C2=O)C(=O)N1 (stereo partly drawn) [Compound 468, N-((1s,3s)-3-(6-((4-(4-((1-(1-(2-(2,6-dioxopiperidin-3-yl)-6-fluoro-1,3-dioxoisoindolin-5-yl)piperidin-4-carbonyl)piperidin-4-yl)methyl)piperazin-1-yl)phenyl)amino)-9H-purin-9-yl)cyclobutyl)-6-fluoropicolinamide]	50%	40%	40%	0/0/0%	0/0/0%	0/0/0%
Cc1cccc(C(=O)NC2CC(n3cnc4c(NCc5ccc(OCC6CCN(c7ccc8c(c7)C(=O)N([C@H]7CCC(=O)NC7=O)C8=O)CC6)cc5)ncnc43)C2)n1 (stereo partly drawn) [Compound 110, N-((1s,3s)-3-(6-((4-((1-(2-(2,6-dioxopiperidin-3-yl)-1,3-dioxoisoindolin-5-yl)piperidin-4-yl)methoxy)benzyl)amino)-9H-purin-9-yl)cyclobutyl)-6-methylpicolinamide]	100%	60%	80%	90%	20%	30%
O=C1CC[C@@H](c2cccc(OCC(=O)N3CCC4(CC3)CC(N3CCN(c5ccc(Nc6ncnc7c6ncn7C6CC(NC(=O)Cc7ccccc7)C6)cc5)CC3)C4)c2)C(=O)N1 (stereo partly drawn) [Compound 226, N-((1s,3s)-3-(6-((4-(4-(7-(2-(3-(2,6-dioxopiperidin-3-yl)phenoxy)acetyl)-7-azaspiro[3.5]nonan-2-yl)piperazin-1-yl)phenyl)amino)-9H-purin-9-yl)cyclobutyl)-2-phenylacetamide]	40%	30%	40%	0/0/0%	0/0/0%	0/0/0%
O=C1CC[C@H](N2C(=O)c3cccc(NCC(=O)N4CCC5(CC(N6CCN(c7ccc(Nc8ncnc9c8ncn9C8CC(NC(=O)Cc9ccccc9)C8)cc7)CC6)C5)C4)c3C2=O)C(=O)N1 (stereo partly drawn) [Compound 263, N-((1s,3s)-3-(6-((4-(4-(6-((2-(2,6-dioxopiperidin-3-yl)-1,3-dioxoisoindolin-4-yl)glycyl)-6-azaspiro[3.4]octan-2-yl)piperazin-1-yl)phenyl)amino)-9H-purin-9-yl)cyclobutyl)-2-phenylacetamide]	50%	40%	40%	20%	0%	0%
